Laboratory results: ChEMBL document CHEMBL1201862, “PubChem BioAssay data set” (2004)
Activity calls are given as the source filed them.

How the values were obtained:
[1] = molecular target: T1, E3 ubiquitin-protein ligase XIAP (Homo sapiens, UniProt P98170); test: XIAP antagonists, biochemical, IAP family, fluorescence polarization (AID 1018); assay type: functional
[2] = molecular target: T1, E3 ubiquitin-protein ligase XIAP; test: Counter Screen using XIAP-Bir3 for Chemical Antagonists of Bir1/2 domains of IAP-family anti-apoptotic proteins. [Related pubchem assays (depositor defined):AID1018, AID1449, AID1514, AID1638, AID1749, AID1750, AID488957, AID488963]
[3] = molecular target: T2, Heat shock factor protein 1 (Mus musculus, UniProt P38532); test: inhibition of MG132-induced HSE-luciferase signal, confirmation, cell-based, NIH3T3, luminescence, dose retest (AID 2382); assay type: functional;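 further: NIH3T3 fibroblasts with HSF1-driven luciferase reporter stressed by proteasome inhibitor MG132; luminescence from HSF1-driven luciferase expression after 8 hours of MG132 stress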
T2 sequence (P38532 whole entry): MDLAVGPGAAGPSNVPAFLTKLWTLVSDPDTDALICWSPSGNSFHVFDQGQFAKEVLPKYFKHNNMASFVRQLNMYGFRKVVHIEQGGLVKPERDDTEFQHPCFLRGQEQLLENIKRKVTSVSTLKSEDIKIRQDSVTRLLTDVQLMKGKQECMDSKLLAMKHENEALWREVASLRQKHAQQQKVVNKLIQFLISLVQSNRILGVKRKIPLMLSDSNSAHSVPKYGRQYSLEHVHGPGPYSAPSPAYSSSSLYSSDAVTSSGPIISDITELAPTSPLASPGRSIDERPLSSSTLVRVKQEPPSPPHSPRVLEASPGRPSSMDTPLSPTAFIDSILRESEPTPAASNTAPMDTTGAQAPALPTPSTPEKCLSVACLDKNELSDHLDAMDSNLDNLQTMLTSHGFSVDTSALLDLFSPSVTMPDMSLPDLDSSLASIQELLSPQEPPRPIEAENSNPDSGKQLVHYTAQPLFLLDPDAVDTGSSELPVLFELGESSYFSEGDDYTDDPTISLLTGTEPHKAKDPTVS

[4] = molecular target: T3, Aryl hydrocarbon receptor (Homo sapiens, UniProt P35869); test: Luminescence-based cell-based high throughput dose response assay for activators of the Aryl Hydrocarbon Receptor (AHR). [Related pubchem assays: 2796 (Primary screen (AHR activators in singlicate)), 2845 (Confirmation screen (AHR activators in triplicate)), 434939 (Counterscreen (PXR activators in triplicate)), 2804 (Summary (AHR activators))]; assay type: ADME
T3 sequence (P35869 whole entry): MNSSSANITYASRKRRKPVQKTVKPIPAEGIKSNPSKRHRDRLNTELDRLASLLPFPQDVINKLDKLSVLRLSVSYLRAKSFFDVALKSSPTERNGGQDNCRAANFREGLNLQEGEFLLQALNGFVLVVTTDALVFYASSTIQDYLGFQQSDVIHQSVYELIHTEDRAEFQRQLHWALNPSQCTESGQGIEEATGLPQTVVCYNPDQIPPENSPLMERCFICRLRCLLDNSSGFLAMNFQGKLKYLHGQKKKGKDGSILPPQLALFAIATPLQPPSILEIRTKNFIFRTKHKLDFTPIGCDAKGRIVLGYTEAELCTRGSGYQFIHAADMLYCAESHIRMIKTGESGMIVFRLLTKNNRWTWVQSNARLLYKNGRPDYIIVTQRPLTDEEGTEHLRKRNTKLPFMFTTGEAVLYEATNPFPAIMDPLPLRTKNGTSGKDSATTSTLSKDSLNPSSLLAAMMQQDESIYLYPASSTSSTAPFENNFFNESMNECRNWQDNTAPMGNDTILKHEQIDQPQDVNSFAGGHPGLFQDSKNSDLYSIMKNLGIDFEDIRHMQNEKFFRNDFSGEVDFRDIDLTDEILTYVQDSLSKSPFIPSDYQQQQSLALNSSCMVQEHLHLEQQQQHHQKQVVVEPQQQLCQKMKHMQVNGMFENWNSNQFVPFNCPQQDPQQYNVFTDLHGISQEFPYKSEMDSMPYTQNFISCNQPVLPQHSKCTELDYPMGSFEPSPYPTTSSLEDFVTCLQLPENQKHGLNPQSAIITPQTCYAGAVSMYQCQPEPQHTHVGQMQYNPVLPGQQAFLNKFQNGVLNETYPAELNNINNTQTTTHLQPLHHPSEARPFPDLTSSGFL

X-box-binding protein 1 = molecular target: T4, X-box-binding protein 1 (Homo sapiens, UniProt P17861); assay type: functional, Cricetulus griseus;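 further: confirmatory dose-response counter-screen serving a CHOP assay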
T4 sequence (P17861 whole entry): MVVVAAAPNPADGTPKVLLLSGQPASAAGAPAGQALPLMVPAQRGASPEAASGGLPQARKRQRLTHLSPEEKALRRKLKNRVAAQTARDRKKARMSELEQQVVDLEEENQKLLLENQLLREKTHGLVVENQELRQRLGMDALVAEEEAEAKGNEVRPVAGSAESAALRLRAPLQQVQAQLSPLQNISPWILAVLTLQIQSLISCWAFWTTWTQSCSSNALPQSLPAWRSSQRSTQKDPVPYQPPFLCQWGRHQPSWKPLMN

[5] = test system: Streptococcus sp. 'group A'; test: growth inhibition of control SK(-) GAS strain, dose response, counter-screen for streptokinase expression inhibitor project, luminescence, kanamycin, BacTiterGlo, confirmation (AID 1900); assay type: functional, organism-based
Streptococcus = test: Group A Streptococcus viability loss, dose response, counter-screen for streptokinase expression inhibitor project, luminescence, BacTiterGlo (AID 1915); assay type: functional, organism-based;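 further: potency for reduction of bacterial viability or growth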
Caspase-6 = molecular target: T5, Caspase-6 (Homo sapiens, UniProt P55212); test: human caspase-6 inhibitors, dose response, biochemical, VEID-R110 fluorescence, cherry-pick (AID 720632)
T5 sequence (P55212 whole entry): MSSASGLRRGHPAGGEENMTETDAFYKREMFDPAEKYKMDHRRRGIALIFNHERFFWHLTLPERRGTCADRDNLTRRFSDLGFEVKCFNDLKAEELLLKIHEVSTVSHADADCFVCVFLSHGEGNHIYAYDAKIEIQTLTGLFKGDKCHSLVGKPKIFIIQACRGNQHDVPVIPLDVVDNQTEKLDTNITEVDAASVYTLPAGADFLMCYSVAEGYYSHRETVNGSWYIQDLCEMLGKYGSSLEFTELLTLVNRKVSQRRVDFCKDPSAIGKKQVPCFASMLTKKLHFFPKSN

T1 sequence (P98170 whole entry): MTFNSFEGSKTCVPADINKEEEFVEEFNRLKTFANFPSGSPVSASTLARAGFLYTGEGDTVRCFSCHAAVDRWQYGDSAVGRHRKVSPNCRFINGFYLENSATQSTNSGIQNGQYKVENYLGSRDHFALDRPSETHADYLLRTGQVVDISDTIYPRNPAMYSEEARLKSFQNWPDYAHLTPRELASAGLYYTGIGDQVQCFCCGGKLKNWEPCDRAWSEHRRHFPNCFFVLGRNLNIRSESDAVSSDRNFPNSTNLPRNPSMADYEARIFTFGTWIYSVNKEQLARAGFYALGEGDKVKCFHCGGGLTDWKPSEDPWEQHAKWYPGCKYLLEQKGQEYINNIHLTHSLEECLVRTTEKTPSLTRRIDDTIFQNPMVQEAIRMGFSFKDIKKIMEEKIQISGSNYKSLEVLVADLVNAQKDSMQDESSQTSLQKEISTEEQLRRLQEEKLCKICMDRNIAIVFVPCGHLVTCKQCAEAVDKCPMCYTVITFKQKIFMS

SMILES	IC50 [1]	IC50 [2]	EC50 [4]	other results
Cc1cc(S(=O)(=O)N2CCN(Cc3ccccc3)CC2)c(C)s1	> 100 µM (not active)	> 100 µM (inactive)		
CCCC(=O)Nc1nn(C)c2nc3cc(C)ccc3cc12			0.458 µM (active)	
Cn1c(-c2cccc(OCc3ccccc3)c2)nc2c1c(=O)[nH]c(=O)n2Cc1ccccc1				Absolute IC50 (XBP1) (X-box-binding protein 1): 10 µM
CC[C@H]1OC(=O)[C@H](C)[C@@H](O[C@H]2C[C@@](C)(OC)[C@@H](O)[C@H](C)O2)[C@H](C)[C@@H](O[C@@H]2O[C@H](C)C[C@H](N(C)C)[C@H]2O)[C@](C)(O)C[C@@H](C)[C@@H]2N[C@@H](COCCOC)O[C@H]([C@H]2C)[C@]1(C)O [DIRITHROMYCIN]	> 100 µM (not active)	> 100 µM (inactive)		EC50 [5]: < 0.06 µM (active); EC50 (Streptococcus): 0.117 µM (active)

The next lines start with results.

IC50 [1]	IC50 [2]	EC50 [4]	SMILES	other results
> 100 µM (not active)	> 100 µM (inactive)		CC(C)CC(NC(=O)c1ccco1)C(=O)Nc1ccc2c(c1)OCCO2 (stereo unspecified)	EC50 [3]: 11.3 µM (active)
		2.18 µM (active)	COC(=O)c1ccccc1NC(=O)Cn1ccnc1	
		4.82 µM (active)	O=C(O)COn1c(-c2ccccc2)nc2ccc([N+](=O)[O-])cc21	AC50 (Caspase-6): 5.23 µM (active)
> 100 µM (not active)	> 100 µM (inactive)		CN1CCN(c2ccccc2NC(=O)c2ccc(-c3cccc([N+](=O)[O-])c3)o2)CC1	
